System: hamster sebocytes
Test: Sebocyte culture test (sebum synthesis amount, Oil Red O staining)
Type: cell-based, golden hamster
Settings: concentration of 1×10^−5 M; microscopic observation and absorbance measurement; medium with 1×10^−6M testosterone; about 2 weeks
Method: 1. The test was carried out using a hamster sebocyte culture kit KB-1000 (manufactured by KURABO […] LTD.).
The sebocyte cell derived from the auricula of a normal golden hamster was inoculated in a 24-well plate in a density of 5.0×10^4 cells/well. During the test, the cell was cultured in medium containing testosterone in a concentration of 1×10^−6M.
2. The cell was cultured for several days until confluent, and the medium was exchanged with medium containing the test sample. The medium was exchanged with sample medium every other day and the culture was continued for about 2 weeks.
In this test, cow's lactoferrin was prepared to be used as the lactoferrin, and spironolactone was used as a control.
3. Then, using a sebum synthesis assay kit SE-3001 (manufactured by KURABO […], LTD.), a WST-8 solution was added to each well and incubated for 30 minutes at 37° C. The supernatant was assayed at a wavelength of 450 nm, and the number of viable cell was counted.
4. Further, the supernatant was stained with Oil Red O and observed under a microscope while extracted with 100% isopropanol and measured at a wavelength of 520 nm for the lipid synthesis amount. […]
Comparison of lipid synthesis amount per cell=absorbance B/absorbance A
Absorbance A: cell number measured value (450 nm)
Absorbance B: lipid synthesis amount measured value (520 nm)

In the case of `CC(=O)S[C@@H]1CC2=CC(=O)CC[C@]2(C)[C@H]2CC[C@@]3(C)[C@@H](CC[C@@]34CCC(=O)O4)[C@H]12` [spironolactone, reference compound], the “sebum synthesis amount compared with the control” value is reported as “decreased sebum synthesis amount compared with the control”.
